Assay results published in ChEMBL document CHEMBL3352489, “6-Hydroxyquinolinium salts differing in the length of alkyl side-chain: synthesis and antimicrobial activity” (Bioorg Med Chem Lett, 2014).
pIC50: −log10 of the molar value.

Legend:
[1] = tested on: Staphylococcus epidermidis; assay: microbe, parasite or virus in culture; type: functional; conditions: H 6966/08, 48 h
Description: Antibacterial activity against Staphylococcus epidermidis H 6966/08 after 48 hrs by microdilution broth method

[2] = tested on: Klebsiella pneumoniae; assay: Bactericidal activity against Klebsiella pneumoniae D 11750/08 after 24 hrs by microdilution broth method; type: functional; conditions: D 11750/08, 24 h, read-out: MBC>99.9
[3] = tested on: Klebsiella pneumoniae; assay: microbe, parasite or virus in culture; type: functional; conditions: D 11750/08, 24 h
Description: Antibacterial activity against Klebsiella pneumoniae D 11750/08 after 24 hrs by microdilution broth method

[4] = tested on: Pichia kudriavzevii; assay: Fungicidal activity against Candida krusei E28 after 48 hrs by modified standard CSLI M27-A2 method; type: functional; conditions: E28, 48 h
[5] = tested on: Pseudomonas aeruginosa; assay: microbe, parasite or virus in culture; type: functional; conditions: CCM 1961, 120 h
Description: Antibacterial activity against Pseudomonas aeruginosa CCM 1961 after 120 hrs by microdilution broth method

[6] = tested on: Klebsiella pneumoniae; assay: Bactericidal activity against Klebsiella pneumoniae J 14368/08 after 48 hrs by microdilution broth method; type: functional; conditions: J 14368/08, 48 h, read-out: MBC>99.9
[7] = tested on: Enterococcus sp.; assay: microbe, parasite or virus in culture; type: functional; conditions: J 14365/08, 48 h
Description: Antibacterial activity against Enterococcus sp. J 14365/08 after 48 hrs by microdilution broth method

[8] = tested on: Pichia kudriavzevii; assay: Antifungal activity against Candida krusei E28 after 48 hrs by modified standard CSLI M27-A2 method; type: functional; conditions: E28, 48 h
[9] = tested on: Klebsiella pneumoniae; assay: microbe, parasite or virus in culture; type: functional; conditions: J 14368/08, 24 h
Description: Antibacterial activity against Klebsiella pneumoniae J 14368/08 after 24 hrs by microdilution broth method

[10] = tested on: Trichophyton mentagrophytes; assay: Fungicidal activity against Trichophyton mentagrophytes 445 after 120 hrs by modified standard CSLI M27-A2 method; type: functional; conditions: Trichophyton mentagrophytes, 445, 120 h
[11] = tested on: Escherichia coli; assay: microbe, parasite or virus in culture; type: functional; conditions: CCM 4517, 24 h
Description: Antibacterial activity against Escherichia coli CCM 4517 after 24 hrs by microdilution broth method

[12] = tested on: Lichtheimia corymbifera; assay: microbe, parasite or virus in culture; type: functional; conditions: Lichtheimia corymbifera, 272, 48 h
Description: Antifungal activity against Absidia corymbifera 272 after 48 hrs by modified standard CSLI M27-A2 method

[13] = tested on: Nakaseomyces glabratus; assay: Antifungal activity against Candida glabrata 20/I after 48 hrs by modified standard CSLI M27-A2 method; type: functional
[14] = tested on: Lichtheimia corymbifera; assay: microbe, parasite or virus in culture; type: functional; conditions: Lichtheimia corymbifera, 272, 24 h
Description: Antifungal activity against Absidia corymbifera 272 after 24 hrs by modified standard CSLI M27-A2 method

[15] = tested on: Pseudomonas aeruginosa; assay: microbe, parasite or virus in culture; type: functional; conditions: CCM 1961, 72 h
Description: Antibacterial activity against Pseudomonas aeruginosa CCM 1961 after 72 hrs by microdilution broth method

[16] = tested on: Escherichia coli; assay: Bactericidal activity against Escherichia coli CCM 4517 after 48 hrs by microdilution broth method; type: functional; conditions: CCM 4517, 48 h, read-out: MBC>99.9
[17] = tested on: Candida tropicalis; assay: microbe, parasite or virus in culture; type: functional; conditions: Candida tropicalis, 156, 24 h
Description: Antifungal activity against Candida tropicalis 156 after 24 hrs by modified standard CSLI M27-A2 method

[18] = tested on: Enterococcus sp.; assay: Bactericidal activity against Enterococcus sp. J 14365/08 after 48 hrs by microdilution broth method; type: functional; conditions: J 14365/08, 48 h, read-out: MBC>99.9
[19] = tested on: Trichophyton mentagrophytes; assay: microbe, parasite or virus in culture; type: functional; conditions: Trichophyton mentagrophytes, 445, 120 h
Description: Antifungal activity against Trichophyton mentagrophytes 445 after 120 hrs by modified standard CSLI M27-A2 method

[20] = tested on: Trichophyton mentagrophytes; assay: microbe, parasite or virus in culture; type: functional; conditions: Trichophyton mentagrophytes, 445, 72 h
Description: Antifungal activity against Trichophyton mentagrophytes 445 after 72 hrs by modified standard CSLI M27-A2 method

[21] = tested on: Staphylococcus aureus; assay: microbe, parasite or virus in culture; type: functional; conditions: CCM 4516/08, 24 h
Description: Antibacterial activity against Staphylococcus aureus CCM 4516/08 after 24 hrs by microdilution broth method

[22] = tested on: Candida tropicalis; assay: Fungicidal activity against Candida tropicalis 156 after 48 hrs by modified standard CSLI M27-A2 method; type: functional; conditions: Candida tropicalis, 156, 48 h
[23] = tested on: Aspergillus fumigatus; assay: microbe, parasite or virus in culture; type: functional; conditions: Aspergillus fumigatus, 231, 24 h
Description: Antifungal activity against Aspergillus fumigatus 231 after 24 hrs by modified standard CSLI M27-A2 method

[24] = tested on: Lichtheimia corymbifera; assay: Fungicidal activity against Absidia corymbifera 272 after 48 hrs by modified standard CSLI M27-A2 method; type: functional; conditions: Lichtheimia corymbifera, 272, 48 h
[25] = tested on: Staphylococcus aureus; assay: microbe, parasite or virus in culture; type: functional; conditions: H 5996/08, 48 h
Description: Antibacterial activity against Staphylococcus aureus H 5996/08 after 48 hrs by microdilution broth method

[26] = tested on: Nakaseomyces glabratus; assay: Antifungal activity against Candida glabrata 20/I after 24 hrs by modified standard CSLI M27-A2 method; type: functional
[27] = tested on: Staphylococcus epidermidis; assay: microbe, parasite or virus in culture; type: functional; conditions: H 6966/08, 24 h
Description: Antibacterial activity against Staphylococcus epidermidis H 6966/08 after 24 hrs by microdilution broth method

[28] = tested on: Trichosporon asahii; assay: microbe, parasite or virus in culture; type: functional; conditions: Trichosporon asahii, 1188, 48 h
Description: Antifungal activity against Trichosporon asahii 1188 after 48 hrs by modified standard CSLI M27-A2 method

[29] = tested on: Nakaseomyces glabratus; assay: Fungicidal activity against Candida glabrata 20/I after 48 hrs by modified standard CSLI M27-A2 method; type: functional
[30] = tested on: Trichosporon asahii; assay: microbe, parasite or virus in culture; type: functional; conditions: Trichosporon asahii, 1188, 24 h
Description: Antifungal activity against Trichosporon asahii 1188 after 24 hrs by modified standard CSLI M27-A2 method

[31] = tested on: Candida albicans; assay: Fungicidal activity against Candida albicans ATCC 44859 after 48 hrs by modified standard CSLI M27-A2 method; type: functional; conditions: ATCC 44859, 48 h
[32] = tested on: Staphylococcus aureus; assay: Bactericidal activity against Staphylococcus aureus H 5996/08 after 48 hrs by microdilution broth method; type: functional; conditions: H 5996/08, 48 h, read-out: MBC>99.9
[33] = tested on: Aspergillus fumigatus; assay: microbe, parasite or virus in culture; type: functional; conditions: Aspergillus fumigatus, 231, 48 h
Description: Antifungal activity against Aspergillus fumigatus 231 after 48 hrs by modified standard CSLI M27-A2 method

[34] = tested on: Klebsiella pneumoniae; assay: microbe, parasite or virus in culture; type: functional; conditions: D 11750/08, 48 h
Description: Antibacterial activity against Klebsiella pneumoniae D 11750/08 after 48 hrs by microdilution broth method

[35] = tested on: Candida tropicalis; assay: microbe, parasite or virus in culture; type: functional; conditions: Candida tropicalis, 156, 48 h
Description: Antifungal activity against Candida tropicalis 156 after 48 hrs by modified standard CSLI M27-A2 method

[36] = tested on: Candida albicans; assay: microbe, parasite or virus in culture; type: functional; conditions: ATCC 44859, 24 h
Description: Antifungal activity against Candida albicans ATCC 44859 after 24 hrs by modified standard CSLI M27-A2 method

[37] = Cytotoxicity against CHOK1 cells after 24 hrs by MTT assay; type: ADME, cell-based; conditions: Cricetulus griseus, CHO-K1, 24 h
[38] = tested on: Candida albicans; assay: microbe, parasite or virus in culture; type: functional; conditions: ATCC 44859, 48 h
Description: Antifungal activity against Candida albicans ATCC 44859 after 48 hrs by modified standard CSLI M27-A2 method

[39] = tested on: Staphylococcus aureus; assay: microbe, parasite or virus in culture; type: functional; conditions: H 5996/08, 24 h
Description: Antibacterial activity against Staphylococcus aureus H 5996/08 after 24 hrs by microdilution broth method

[40] = tested on: Staphylococcus epidermidis; assay: Bactericidal activity against Staphylococcus epidermidis H 6966/08 after 48 hrs by microdilution broth method; type: functional; conditions: H 6966/08, 48 h, read-out: MBC>99.9
[41] = tested on: Staphylococcus aureus; assay: Bactericidal activity against Staphylococcus aureus CCM 4516/08 after 48 hrs by microdilution broth method; type: functional; conditions: CCM 4516/08, 48 h, read-out: MBC>99.9
[42] = tested on: Klebsiella pneumoniae; assay: microbe, parasite or virus in culture; type: functional; conditions: J 14368/08, 48 h
Description: Antibacterial activity against Klebsiella pneumoniae J 14368/08 after 48 hrs by microdilution broth method

[43] = tested on: Escherichia coli; assay: microbe, parasite or virus in culture; type: functional; conditions: CCM 4517, 48 h
Description: Antibacterial activity against Escherichia coli CCM 4517 after 48 hrs by microdilution broth method

[44] = tested on: Trichosporon asahii; assay: Fungicidal activity against Trichosporon asahii 1188 after 48 hrs by modified standard CSLI M27-A2 method; type: functional; conditions: Trichosporon asahii, 1188, 48 h
[45] = tested on: Staphylococcus aureus; assay: microbe, parasite or virus in culture; type: functional; conditions: CCM 4516/08, 48 h
Description: Antibacterial activity against Staphylococcus aureus CCM 4516/08 after 48 hrs by microdilution broth method

[46] = tested on: Aspergillus fumigatus; assay: Fungicidal activity against Aspergillus fumigatus 231 after 48 hrs by modified standard CSLI M27-A2 method; type: functional; conditions: Aspergillus fumigatus, 231, 48 h
[47] = tested on: Enterococcus sp.; assay: microbe, parasite or virus in culture; type: functional; conditions: J 14365/08, 24 h
Description: Antibacterial activity against Enterococcus sp. J 14365/08 after 24 hrs by microdilution broth method

[48] = tested on: Pichia kudriavzevii; assay: Antifungal activity against Candida krusei E28 after 24 hrs by modified standard CSLI M27-A2 method; type: functional; conditions: E28, 24 h
[49] = tested on: Pseudomonas aeruginosa; assay: Bactericidal activity against Pseudomonas aeruginosa CCM 1961 after 120 hrs by microdilution broth method; type: functional; conditions: CCM 1961, 120 h, read-out: MBC>99.9

CCCCCCCCCCCC[N+](C)(C)Cc1ccccc1
MIC95 [1]: 0.49 µM
MBC [2]: 0.49 µM
MIC95 [3]: 0.49 µM
MFC [4]: 0.49 µM
MIC95 [5]: 3.91 µM
MBC [6]: 0.98 µM
MIC95 [7]: 0.98 µM
MIC [8]: 0.49 µM
MIC95 [9]: 0.98 µM
MFC [10]: 1.95 µM
MIC95 [11]: 0.49 µM
MIC [12]: 7.81 µM
MIC [13]: 0.49 µM
MIC [14]: 7.81 µM
MIC95 [15]: 3.91 µM
MBC [16]: 1.95 µM
MIC [17]: 0.49 µM
MBC [18]: 0.98 µM
MIC [19]: 0.98 µM
MIC [20]: 0.98 µM
MIC95 [21]: 0.49 µM
MFC [22]: 0.98 µM
MIC [23]: 0.98 µM
MFC [24]: 7.81 µM
MIC95 [25]: 0.49 µM
MIC [26]: 0.49 µM
MIC95 [27]: 0.49 µM
MIC [28]: 1.95 µM
MFC [29]: 0.49 µM
MIC [30]: 0.49 µM
MFC [31]: 0.98 µM
MBC [32]: 0.98 µM
MIC [33]: 3.91 µM
MIC95 [34]: 0.49 µM
MIC [35]: 0.49 µM
MIC [36]: 0.49 µM
pIC50 [37]: 4.54
MIC [38]: 0.49 µM
MIC95 [39]: 0.49 µM
MBC [40]: 0.49 µM
MBC [41]: 1.95 µM
MIC95 [42]: 0.98 µM
MIC95 [43]: 1.95 µM
MFC [44]: 1.95 µM
MIC95 [45]: 1.95 µM
MFC [46]: 3.91 µM
MIC95 [47]: 0.49 µM
MIC [48]: 0.49 µM
MBC [49]: 7.81 µM

CCCCCCCCCCCCCCCC[N+](C)(C)Cc1ccccc1
MIC95 [1]: 0.49 µM
MBC [2]: 7.81 µM
MIC95 [3]: 7.81 µM
MFC [4]: 1.95 µM
MIC95 [5]: 31.2 µM
MBC [6]: 7.81 µM
MIC95 [7]: 1.95 µM
MIC [8]: 1.95 µM
MIC95 [9]: 7.81 µM
MFC [10]: 62.5 µM
MIC95 [11]: 7.81 µM
MIC [12]: 7.81 µM
MIC [13]: 3.91 µM
MIC [14]: 7.81 µM
MIC95 [15]: 15.6 µM
MBC [16]: 7.81 µM
MIC [17]: 3.91 µM
MBC [18]: 3.91 µM
MIC [19]: 7.81 µM
MIC [20]: 7.81 µM
MIC95 [21]: 0.98 µM
MFC [22]: 7.81 µM
MIC [23]: 7.81 µM
MFC [24]: 62.5 µM
MIC95 [25]: 1.95 µM
MIC [26]: 1.95 µM
MIC95 [27]: 0.49 µM
MIC [28]: 7.81 µM
MFC [29]: 62.5 µM
MIC [30]: 7.81 µM
MFC [31]: 7.81 µM
MBC [32]: 3.91 µM
MIC [33]: 7.81 µM
MIC95 [34]: 7.81 µM
MIC [35]: 7.81 µM
MIC [36]: 3.91 µM
pIC50 [37]: 4.82
MIC [38]: 7.81 µM
MIC95 [39]: 1.95 µM
MBC [40]: 3.91 µM
MBC [41]: 3.91 µM
MIC95 [42]: 7.81 µM
MIC95 [43]: 7.81 µM
MFC [44]: 62.5 µM
MIC95 [45]: 0.98 µM
MFC [46]: 62.5 µM
MIC95 [47]: 1.95 µM
MIC [48]: 1.95 µM
MBC [49]: 125 µM
